Results reported in patent US11007206B2, “Cyclic boronic acid ester derivatives and therapeutic uses thereof” (Melinta Subsidiary Corp., priority 2012, dated 2021).
Converted amounts (≈) assume the structure as drawn. Read-outs that look alike come from different tables or passages of the source.

Tested on: K. pneumoniae strains
Test: Biapenem MICs of the K. pneumoniae strains used in the infection models (Example 6)
Format: cell-based
Details: Klebsiella pneumoniae

Structure (SMILES): C[C@@H](O)[C@H]1C(=O)N2C(C(=O)[O-])=C(SC3Cn4cnc[n+]4C3)[C@H](C)[C@H]12 (stereo partly drawn) [Biapenem]
- MIC (ATCC43816, K. pneumoniae strain ATCC 43816, read-out: Biapenem MIC Alone): 0.25 µg/mL (≈ 0.713 µM)
- MIC (ATCC43816, K. pneumoniae strain ATCC 43816, with Compound I 5 μg/mL, read-out: Biapenem MIC with Compound I (5 μg/mL)): 0.25 µg/mL (≈ 0.713 µM)
- MIC (K. pneumoniae strain KP1004, read-out: Biapenem MIC Alone): 16 µg/mL (≈ 45.7 µM)
- MIC (K. pneumoniae strain KP1004, with Compound I 5 μg/mL, read-out: Biapenem MIC with Compound I (5 μg/mL)): ≤ 0.06 µg/mL
- MIC (K. pneumoniae strain KP1061, read-out: Biapenem MIC Alone): 32 µg/mL (≈ 91.3 µM)
- MIC (K. pneumoniae strain KP1061, with Compound I 5 μg/mL, read-out: Biapenem MIC with Compound I (5 μg/mL)): ≤ 0.06 µg/mL
- MIC (K. pneumoniae strain KP1074, read-out: Biapenem MIC Alone): 64 µg/mL (≈ 183 µM)
- MIC (K. pneumoniae strain KP1074, with Compound I 5 μg/mL, read-out: Biapenem MIC with Compound I (5 μg/mL)): 0.25 µg/mL (≈ 0.713 µM)
- MIC (four K. pneumoniae strains used in the infection models, read-out: Biapenem MICs): 0.25 to 64 µg/mL (≈ 0.713 to 183 µM)
